This is an account of results in DBAASP.

The structures appear in SMILES notation. In brackets after ≈: the same amount, converted by molar mass. Several values for one entry are separate records, joined by “and”; a condition that tells them apart may be missing. Equal values may be shown once.

What all share (test): ≥ marks a high value that may be exact or a test limit, other limits are often not marked, values filed in µg/mL are converted to µM
For assay [1], the system named is Staphylococcus aureus ATCC 25923.
Assay [2] relates to Escherichia coli ATCC 25726.
The test system of assay [3] is Batrachochytrium dendrobatidis.
In assay [4] the test system is Staphylococcus aureus NCTC 8325.
Assay [5] concerns Pseudomonas aeruginosa H1001.
Assay [6] has as its system Escherichia coli ATCC 25922.
The test system of assay [7] is Escherichia coli ATCC 8739.
Assay [8] deals with Acinetobacter baumannii ATCC 17978.
The test system of assay [9] is Escherichia coli DSM 1103.
Assay [10] concerns Pseudomonas aeruginosa DSM 1117.
Assay [11] has as its system Staphylococcus aureus HNCMO 112011.
In assay [12] the test system is Staphylococcus epidermidis DSM 1798.
The test system of assay [13] is Staphylococcus aureus DSM 1104.
Assay [14] relates to Klebsiella pneumoniae ATCC 700603.
Another assay concerns Escherichia coli MG1655.
The test system of assay [15] is Pseudomonas aeruginosa ATCC 10145.

Usually MIC stands for the least concentration at which growth counts as inhibited. Lower therefore signals a more susceptible organism. Consider `CC[C@H](C)[C@H](NC(=O)[C@@H]1CCCN1C(=O)[C@H](CC(C)C)NC(=O)[C@@H](N)Cc1ccccc1)C(=O)N[C@H](C(=O)NCC(=O)N[C@@H](CCCCN)C(=O)N[C@@H](CC(C)C)C(=O)N[C@@H](CC(C)C)C(=O)N[C@@H](CO)C(=O)NCC(=O)N[C@@H](CC(C)C)C(=O)N[C@@H](CC(C)C)C(N)=O)C(C)C` [FLPIVGKLLSGLL], for which the MIC was 8 µM (≈ 11 µg/mL) in assay [1], no less than 128 µM in assay [2], no less than 49.6 µM in [3] and no less than 110 µM in assay [4].

For `CC(C)C[C@H](NC(=O)[C@H](CCCCN)NC(=O)[C@H](CCC(N)=O)NC(=O)[C@H](CC(N)=O)NC(=O)[C@H](CC(C)C)NC(=O)[C@H](CC(=O)O)NC(=O)[C@H](CCC(=O)O)NC(=O)[C@@H]1CCCN1C(=O)[C@@H](NC(=O)[C@H](C)NC(=O)CN)[C@@H](C)O)C(=O)N[C@@H](CO)C(N)=O` [GATPEDLNQKLS], in assay [5], the MIC is no less than 196 µM.

In the case of `CC[C@H](C)[C@H](NC(=O)[C@H](CCCCN)NC(=O)[C@H](CS)NC(=O)[C@H](C)NC(=O)[C@@H](NC(=O)[C@H](CC(C)C)NC(=O)[C@H](CC(N)=O)NC(=O)[C@@H](NC(=O)CNC(=O)[C@H](CC(C)C)NC(=O)[C@H](CCCNC(=N)N)NC(=O)[C@H](C)NC(=O)[C@H](CC(C)C)NC(=O)[C@H](CC(=O)O)NC(=O)[C@H](CCCCN)NC(=O)CNC(=O)[C@H](CC(C)C)NC(=O)CNC(=O)[C@H](CCCCN)NC(=O)[C@H](CO)NC(=O)[C@H](C)NC(=O)[C@H](Cc1ccccc1)NC(=O)[C@H](CCCCN)NC(=O)[C@H](C)NC(=O)[C@@H](NC(=O)CNC(=O)[C@H](CCCNC(=N)N)NC(=O)[C@H](Cc1ccccc1)NC(=O)[C@@H](NC(=O)[C@H](CO)NC(=O)[C@H](CO)NC(=O)[C@H](Cc1ccccc1)NC(=O)CN)[C@@H](C)CC)C(C)C)C(C)C)C(C)C)C(=O)N[C@@H](CO)C(=O)N[C@@H](CCCCN)C(=O)N[C@@H](CCC(N)=O)C(=O)N[C@@H](CS)C(=O)O` [GFSSIFRGVAKFASKGLGKDLARLGVNLVACKISKQC], the minimum inhibitory concentration (MIC) was 10 µM (≈ 38.7 µg/mL) in assay [6]; ≥ 50 µM and 25 µM in [3].

On to `CC[C@H](C)[C@H](NC(=O)[C@H](CCCCN)NC(=O)[C@H](CCCCN)NC(=O)[C@H](C)NC(=O)[C@H](CC(C)C)NC(=O)[C@H](C)NC(=O)[C@H](C)NC(=O)[C@H](CC(C)C)NC(=O)[C@H](C)NC(=O)[C@H](CCCCN)NC(=O)[C@H](CC(C)C)NC(=O)[C@H](CC(N)=O)NC(=O)[C@@H](NC(=O)[C@H](CCCCN)NC(=O)CNC(=O)[C@H](CC(C)C)NC(=O)[C@H](CC(C)C)NC(=O)[C@H](Cc1ccc(O)cc1)NC(=O)CNC(=O)[C@H](C)NC(=O)[C@H](CO)NC(=O)[C@H](CC(N)=O)NC(=O)[C@H](CC(C)C)NC(=O)[C@@H](NC(=O)[C@H](Cc1c[nH]c2ccccc12)NC(=O)CN)[C@@H](C)O)[C@@H](C)CC)C(=O)N[C@@H](CC(C)C)C(=O)O` [GWTLNSAGYLLGKINLKALAALAKKIL], for which the MIC in assay [7] is 3.1 µM (≈ 8.81 µg/mL); in [8] it was 3.1 µM (≈ 8.81 µg/mL); in assay [9], no less than 43 µM; in assay [10], no less than 86 µM; in [11] it was 3.1 µM (≈ 8.81 µg/mL); in assay [12] it was 5 µM (≈ 14.2 µg/mL). Further, in assay [13], the minimum inhibitory concentration (MIC) is no less than 43 µM.

As to `CC(C)C[C@H](NC(=O)[C@H](Cc1c[nH]c2ccccc12)NC(=O)[C@H](Cc1cnc[nH]1)NC(=O)[C@H](CCCCN)NC(=O)[C@H](CC(C)C)NC(=O)[C@H](C)NC(=O)[C@H](CC(C)C)NC(=O)[C@H](CCCCN)NC(=O)CNC(=O)[C@@H](NC(=O)[C@@H](NC(=O)[C@H](CCCCN)NC(=O)[C@@H](NC(=O)[C@H](CCC(=O)O)NC(=O)[C@H](C)NC(=O)[C@H](CCCCN)NC(=O)[C@H](CCCCN)NC(=O)[C@H](CC(C)C)NC(=O)[C@H](CC(C)C)NC(=O)[C@@H](NC(=O)[C@H](CCCN=C(N)N)NC(=O)[C@H](Cc1ccc(O)cc1)NC(=O)CN)[C@@H](C)O)C(C)C)[C@@H](C)O)C(C)C)C(=O)O` [GYRTLLKKAEVKTVGKLALKHWL], the MIC in [14] was greater than 15 µM; in [1] it was 15 µM (≈ 39.8 µg/mL); in the assay on Escherichia coli MG1655, 15 µM (≈ 39.8 µg/mL); in assay [15], 15 µM (≈ 39.8 µg/mL).

Take `CC[C@H](C)[C@H](NC(=O)[C@H](CCCCN)NC(=O)[C@H](CCCCN)NC(=O)[C@H](C)NC(=O)[C@H](CC(C)C)NC(=O)[C@H](C)NC(=O)[C@H](C)NC(=O)[C@H](CC(C)C)NC(=O)[C@H](C)NC(=O)[C@@H](N)CCCCN)C(=O)N[C@@H](CC(C)C)C(=O)N[C@@H](CCC(N)=O)C(=O)N[C@@H](CCC(N)=O)C(=O)N[C@@H](CS)C(=O)N[C@@H](CCCN=C(N)N)C(=O)N[C@@H](CCCN=C(N)N)C(=O)N1CCC[C@H]1C(=O)N[C@@H](CC(C)C)C(=O)N[C@@H](Cc1ccc(O)cc1)C(=O)N[C@@H](CS)C(=O)N[C@@H](CCCN=C(N)N)C(=O)N[C@@H](CCCN=C(N)N)C(=O)N[C@@H](CCCN=C(N)N)C(=O)O` [KALAALAKKILQQCRRPLYCRRR]: the results for the minimum inhibitory concentration (MIC) in assay [7], in assay [8] and in assay [11] were 6.3 µM (≈ 17.4 µg/mL), 3.1 µM (≈ 8.54 µg/mL) and 3.1 µM (≈ 8.54 µg/mL), respectively.

Take `CSCC[C@H](NC(=O)[C@H](CCCCN)NC(=O)[C@H](Cc1ccccc1)NC(=O)[C@H](CC(N)=O)NC(=O)[C@H](CC(C)C)NC(=O)[C@@H]1CCCN1C(=O)[C@@H](N)CCCN=C(N)N)C(=O)N[C@@H](CC(C)C)C(=O)N[C@@H](CCCN=C(N)N)C(=O)N[C@@H](Cc1ccccc1)C(=O)N[C@@H](Cc1c[nH]c2ccccc12)C(=O)NCC(=O)N[C@@H](CCC(N)=O)C(=O)N[C@@H](CCC(N)=O)C(=O)N[C@@H](CCC(N)=O)C(=O)N[C@@H](CS)C(=O)N[C@@H](CCCN=C(N)N)C(=O)N[C@@H](CCCN=C(N)N)C(=O)N1CCC[C@H]1C(=O)N[C@@H](CC(C)C)C(=O)N[C@@H](Cc1ccc(O)cc1)C(=O)N[C@@H](CS)C(=O)N[C@@H](CCCN=C(N)N)C(=O)N[C@@H](CCCN=C(N)N)C(=O)N[C@@H](CCCN=C(N)N)C(=O)O` [RPLNFKMLRFWGQQQCRRPLYCRRR]: the MIC in assay [7], in assay [8] and in [11] was 3.1 µM (≈ 10.3 µg/mL) throughout.

`CC[C@H](C)[C@H](NC(=O)[C@H](C)NC(=O)[C@@H](NC(=O)[C@H](CCCCN)NC(=O)[C@H](CCCCN)NC(=O)[C@H](Cc1cnc[nH]1)NC(=O)[C@@H](NC(=O)[C@@H](N)CCCN=C(N)N)C(C)C)[C@@H](C)CC)C(=O)N[C@@H](CO)C(=O)N[C@H](C(=O)O)C(C)C` [RVHKKIAISV] returned an MIC in assay [5] of no less than 174 µM.

Regarding `CC[C@H](C)[C@H](NC(=O)[C@H](CCCN=C(N)N)NC(=O)[C@H](CCCN=C(N)N)NC(=O)[C@@H]1CCCN1C(=O)[C@H](CC(C)C)NC(=O)[C@H](CCCN=C(N)N)NC(=O)[C@@H]1CCCN1C(=O)[C@H](CCCN=C(N)N)NC(=O)[C@@H]1CCCN1C(=O)[C@H](CC(C)C)NC(=O)[C@H](Cc1ccc(O)cc1)NC(=O)[C@@H]1CCCN1C(=O)[C@@H]1CCCN1C(=O)[C@H](CCCCN)NC(=O)[C@H](CC(=O)O)NC(=O)[C@@H](N)C(C)C)C(=O)N[C@@H](Cc1ccc(O)cc1)C(=O)N[C@@H](CC(N)=O)C(=O)N[C@@H](CCCN=C(N)N)C(=O)NCC(=O)O` [VDKPPYLPRPRLPRRIYNRG], the minimum inhibitory concentration (MIC) in assay [5] was determined as 0.11 µM (≈ 0.27 µg/mL).
